Laboratory results: US20150203474A1, “SOLID FORMS COMPRISING INHIBITORS OF HCV NS5A, COMPOSITIONS THEREOF, AND USES THEREWITH” (PRESIDIO PHARMACEUTICALS ,INC., priority 2012, published 2015)
Read-outs that look alike come from different tables or passages of the source.

Columns and labels:
[1] = PK study of Form A of Compound I in dogs; type: in vivo; settings: PO dose of 75 mg/kg
Procedure: The pharmacokinetics (PK) properties of Form A of Compound I and Form I of Compound II were determined in a series of comprehensive experiments in preclinical species including Sprague-Dawley rats, beagle dogs, cynomolgus monkeys. In those studies, the Form A crystalline salt of Compound I (and Form I crystalline salt of Compound II) was formulated in saline, 0.5% MC in saline or other commonly used suitable formulation vehicles to give a clear solution or as a suspension or a paste depending on the concentration intended to reach and the choice of vehicles. Dosing was by oral gavage. Blood samples were drawn and placed into individual tube containing K2EDTA. Blood samples were put on ice and centrifuged (2000 g for 5 minutes at 4° C.) to obtain plasma within 15 minutes after collection. Plasma samples were stored at approximately −80° C. freezer until analysis. For most of these analyses, Compound I (and Compound II) and the internal standard (IS) were extracted from rat, monkey or dog plasma by protein precipitation, and the extract was evaporated, reconstituted and analyzed using HPLC with tandem mass spectrometric detection (HPLC-MS/MS), see examples for further details. Calibration was accomplished by weighted linear regression of the ratio of the peak area of analyte to that of the added internal standard (IS). For the validated assay in rat and monkey EDTA plasma, the Lower Limit of Quantitation (LLOQ) for both compound 1 and 2 was 5.00 ng/mL, and the assay was linear from 5.00-1,000 ng/mL. PK parameters were calculated by non-compartmental analysis using WinNonlin (versions 4.1 through 6.1). Non-naïve Beagle Dog, 8.0-9.5 kg were used in the study. The dosing solution was prepared by dissolving 1.90 g of Form A of Compound I (1.67 g free base equivalent) in 222.237 mL of 0.5% MC and vortexed for 20 min, sonicated for 2 min to obtain a colorless clear solution. The animals were restrained manually, and approx. 0.6-1 mL blood/time point was collected from cephalic or saphenous veins into pre-cooled EDTA tubes. Blood samples were put on ice and centrifuged at 4° C. to obtain plasma within 30 minutes of sample collection. […] 5 μL of the supernatant was injected for LC-MS/MS analysis. • For dilution samples: • An aliquot of 10 μL plasma sample was added with 90 μL blank Beagle dog plasma. The dilution factor was 10. An aliquot of 30 μL dilution plasma was added with 200 μL IS in ACN (testosterone as IS, 100.0 ng/mL), the mixture was vortexed for 2 min and centrifuged at 12000 rpm for 5 min. 5 μL of the supernatant was injected for LC-MS/MS analysis.

[2] = Moisture sorption/desorption (DVS) of Compound I Form A; type: physicochemical; settings: 25° C.
Procedure: Dynamic vapor sorption/desorption (DVS) data were collected on a VTI SGA-100 Vapor Sorption Analyzer. NaCl and PVP were used as calibration standards. Samples were not dried prior to analysis. Adsorption and desorption data were collected over a range from 5 to 95% RH at 10% RH increments under a nitrogen purge. The equilibrium criterion used for analysis was less than 0.0100% weight change in 5 minutes with a maximum equilibration time of 3 hours. Data were not corrected for the initial moisture content of the samples. Moisture sorption/desorption data were collected for the sample on a VTI […] Vapor Sorption Analyzer. NaCl and PVP were used as calibration standards. Samples were vacuum dried prior to analysis. Sorption and desorption data were collected over a range from 5 to 95% RH at 10% RH increments under a nitrogen purge. The equilibrium criterion used for analysis was less than 0.0100% weight change in 5 minutes with a maximum equilibration time of 3 hours. Data were not corrected for the initial moisture content of the samples. FIG. 15 illustrates the graphed Weight % vs. Relative Humidity.

[3] = beagle, dog, plasma, po, 75 mg/kg, Dog #1, read-out: plasma concentration
[4] = beagle, dog, plasma, po, 75 mg/kg, Dog #2, read-out: plasma concentration
[5] = beagle, dog, plasma, po, 75 mg/kg, Mean, read-out: mean plasma concentration
[6] = with respect to the initial sample weight

For `COC(=O)N[C@H](C(=O)N1CCC[C@H]1c1ncc(-c2ccc3cc(-c4ccc5nc([C@@H]6CCCN6C(=O)[C@@H](NC(=O)OC)C(C)C)[nH]c5c4)ccc3c2)[nH]1)C(C)C` [Form A of Compound I], the plasma concentration ([1]; Beagle Dog, 0.083 hr, Dog #1) was “BQL”, the concentration at 0.083 hr ([1]; beagle, dog, plasma, po, 75 mg/kg, 0.083 hr, Dog #2, read-out: plasma concentration) was 5.92 ng/mL and the concentration at 0.083 hr ([1]; beagle, dog, plasma, po, 75 mg/kg, 0.083 hr, Mean, read-out: mean plasma concentration) was 5.92 ng/mL. It also gave a concentration at 0.25 h [1, 3] of 267 ng/mL, a concentration at 0.25 h [1, 4] of 374 ng/mL and a concentration at 0.25 h [1, 5] of 320 ng/mL. For the same compound, the concentration at 0.5 h ([1]; beagle, dog, plasma, po, 75 mg/kg, 0.5 hr, Dog #1) was 1090 ng/mL, the concentration at 0.5 hr ([1]; beagle, dog, plasma, po, 75 mg/kg, 0.5 hr, Dog #2, read-out: plasma concentration) was 952 ng/mL and the concentration at 0.5 hr ([1]; beagle, dog, plasma, po, 75 mg/kg, 0.5 hr, Mean, read-out: mean plasma concentration) was 1020 ng/mL. It also gave a concentration at 1 hr [1, 3] of 1590 ng/mL, a concentration at 1 hr [1, 4] of 2050 ng/mL and a concentration at 1 hr [1, 5] of 1820 ng/mL. The concentration at 2 hr [1, 3] was 2980 ng/mL, the concentration at 2 hr [1, 4] was 2400 ng/mL and the concentration at 2 hr [1, 5] was 2690 ng/mL. The concentration at 4 hr [1, 3] was 3080 ng/mL, the concentration at 4 hr [1, 4] was 1540 ng/mL and the concentration at 4 hr [1, 5] was 2310 ng/mL. It also gave a concentration at 6 hr [1, 3] of 3590 ng/mL, a concentration at 6 hr [1, 4] of 1320 ng/mL and a concentration at 6 hr [1, 5] of 2450 ng/mL. The concentration at 8 hr [1, 3] was 3500 ng/mL, the concentration at 8 hr [1, 4] was 1040 ng/mL and the concentration at 8 hr [1, 5] was 2270 ng/mL. The concentration at 24 hr [1, 3] was 244 ng/mL, the concentration at 24 hr [1, 4] was 2160 ng/mL and the concentration at 24 hr [1, 5] was 1200 ng/mL. The Weight % chg ([2]; desorption, Samp RH 5.17 %) was 0.673%, the Weight % chg ([2]; desorption, Samp RH 14.73 %) was 2.010% and the Weight % chg ([2]; desorption, Samp RH 25.12 %) was 3.025%. It also gave a Weight % chg ([2]; desorption, Samp RH 35.13 %) of 3.870%, a Weight % chg ([2]; desorption, Samp RH 44.99 %) of 4.590% and a Weight % chg ([2]; desorption, Samp RH 55.17 %) of 5.352%. The Weight % chg ([2]; desorption, Samp RH 65.08 %) was 5.993%, the Weight % chg ([2]; desorption, Samp RH 75.27 %) was 6.741% and the Weight % chg ([2]; desorption, Samp RH 85.24 %) was 7.855%. For the same compound, the Weight % chg ([2]; sorption, Samp RH 5.09 %) was −0.187%, the Weight % chg ([2]; sorption, Samp RH 14.73 %) was 0.065% and the Weight % chg ([2]; sorption, Samp RH 24.93 %) was 0.303%. It also gave a Weight % chg ([2]; sorption, Samp RH 34.87 %) of 0.521%, a Weight % chg ([2]; sorption, Samp RH 44.91 %) of 0.780% and a Weight % chg ([2]; sorption, Samp RH 54.80 %) of 1.082%. The Weight % chg ([2]; sorption, Samp RH 64.95 %) was 1.458%, the Weight % chg ([2]; sorption, Samp RH 74.71 %) was 1.868% and the Weight % chg ([2]; sorption, Samp RH 84.57 %) was 2.502%. For the same compound, the Weight % chg ([2]; sorption, Samp RH 94.86 %) was 10.824%, the “% wt change upon equilibration at 5% RH” value [2, 6] was −0.187 % wt and the “% wt gain from 5%-85% RH” value [2, 6] was 2.689 % wt. The “% wt gain from 85%-95% RH” value [2, 6] was 8.322 % wt and the “% wt lost from 95%-5% RH” value [2, 6] was 10.151 % wt.
